Measured values reported in publication PMC11204291, “Structural characterization of macro domain–containing Thoeris antiphage defense systems” (Science Advances, 2024).

Tests used:
EcThsB1, TIR domain [1] = molecular target: T1, EcThsB1, TIR domain (Escherichia coli, UniProt A0A0H2V8B5); test: 1H NMR base-exchange assay; assay type: biochemical
T1 construct: gene TcpC; EcThsB1^TIR; residues 165 to 307

[2] = molecular target: macro domain of EcThsA (EcThsA^Macro; residues 62 to 278), wild type (E. coli CFT073); test: SEC-MALS; Superdex 200 5/150 Increase equilibrated in gel filtration buffer, 30 μl of EcThsA^Macro at 0.25 ml/min; no ligand; monomer to dimer
[3] = molecular target: macro domain of EcThsA (EcThsA^Macro; residues 62 to 278), wild type (E. coli CFT073); test: aggregation assay (SDS-PAGE of soluble and insoluble fractions); protein 47 μM incubated with 1 mM ADPR (or 1 mM IAD) at 4°C for 1 hour; higher-order self-association of the dimers
[4] = molecular target: T2, EcThsA (ThsA TM-macro effector), macro domain (Escherichia coli, UniProt A0A0H2V895, F250A/I219A/K249E/Q207E/R182E/R221E); test: ITC (~[…]); STD NMR; assay type: binding
T2 construct: gene c2400; EcThsA^Macro; residues 62 to 278
T2 sequence (A0A0H2V895 62-278 R182E/Q207E/I219A/R221E/K249E/F250A): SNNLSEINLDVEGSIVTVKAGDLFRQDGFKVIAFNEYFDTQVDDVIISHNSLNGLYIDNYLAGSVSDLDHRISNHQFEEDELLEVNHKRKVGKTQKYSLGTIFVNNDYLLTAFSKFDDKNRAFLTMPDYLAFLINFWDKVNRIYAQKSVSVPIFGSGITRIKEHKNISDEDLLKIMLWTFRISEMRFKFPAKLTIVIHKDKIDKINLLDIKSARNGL

[5] = molecular target: T3, EcThsA (ThsA TM-macro effector), macro domain (Escherichia coli, UniProt A0A0H2V895); test: crystal structure of soaked complex ([…] Å); STD NMR; assay type: binding
T3 construct: gene c2400; EcThsA^Macro; residues 62 to 278
T3 sequence (A0A0H2V895 62-278): T2 sequence (A0A0H2V895 62-278 R182E/Q207E/I219A/R221E/K249E/F250A)

[6] = molecular target: T4, EcThsA (ThsA TM-macro effector), macro domain (Escherichia coli, UniProt A0A0H2V895, N114A); test: STD NMR; assay type: binding
T4 construct: gene c2400; EcThsA^Macro; residues 62 to 278

[7] = molecular target: T5, PcThsA (ThsA TM-macro effector), macro domain (Pseudomonas corrugata, UniProt A0A7Y5Z1U6); test: crystal structure ([…] Å) with copurified ligand; LC-MS; assay type: binding
T5 construct: gene HNO91_03675; PcThsA^Macro; residues 63 to 278
T5 sequence (A0A7Y5Z1U6 entry or part of it): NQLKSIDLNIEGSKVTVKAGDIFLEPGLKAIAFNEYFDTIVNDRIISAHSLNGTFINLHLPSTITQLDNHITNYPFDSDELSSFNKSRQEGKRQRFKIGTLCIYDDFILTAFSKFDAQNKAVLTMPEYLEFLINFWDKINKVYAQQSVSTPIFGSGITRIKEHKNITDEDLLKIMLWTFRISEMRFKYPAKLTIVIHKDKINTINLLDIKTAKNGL

[8] = molecular target: T3, EcThsA (ThsA TM-macro effector), macro domain; test: ligand-induced self-aggregation of purified protein (turbidity, SDS-PAGE); assay type: binding
[9] = molecular target: T2, EcThsA (ThsA TM-macro effector), macro domain; test: ITC; assay type: binding
EcThsB1, TIR domain [10] = molecular target: T1, EcThsB1, TIR domain; test: real-time 1H NMR NADase assay; assay type: biochemical

T1 sequence (A0A0H2V8B5 165-307 limits assumed): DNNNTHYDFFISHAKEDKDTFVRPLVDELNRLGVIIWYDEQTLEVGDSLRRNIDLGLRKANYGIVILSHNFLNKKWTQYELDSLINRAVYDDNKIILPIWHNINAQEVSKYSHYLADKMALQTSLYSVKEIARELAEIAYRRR

## NCCc1c[nH]cn1 [histamine]
EcThsB1, TIR domain [1]
  1H NMR base-exchange assay: EcThsB1^TIR could use the histidine catabolite histamine as a substrate in base-exchange reactions, but not histidine

## macro domain of EcThsA (EcThsA^Macro; residues 62 to 278), wild type (domain or fragment)
[2]
  stoichiometry N: 2
[3]
  percent of the protein in the insoluble fraction after incubation with ADPR or IAD: > 50%

## Nc1ncnc2c1ncn2[C@@H]1O[C@H](COP(=O)(O)OP(=O)(O)OC[C@H]2O[C@H](O)[C@H](O)[C@@H]2O)[C@@H](O)[C@H]1O [ADPR]
[4]
  Kd: 4600 ± 500 nM
[5]
  crystal structure of soaked complex (2.1 Å); STD NMR: we observed continuous electron density for a molecule corresponding to ADPR in a highly conserved cleft
[6]
  STD NMR: The N114A mutant could still bind ADPR (Fig. 1I), but the STD NMR signal intensities were different

## Nc1ncnc2c1ncn2[C@@H]1O[C@H](COP(=O)(O)OP(=O)(O)OC[C@H]2O[C@@H](n3ccnc3)[C@H](O)[C@@H]2O)[C@@H](O)[C@H]1O [IAD]
[7]
  crystal structure (1.6 Å) with copurified ligand; LC-MS: revealed that the PcThsA^Macro bound nucleotide has a mass corresponding to IAD
[8]
  ligand-induced self-aggregation of purified protein (turbidity, SDS-PAGE): demonstrating that only ADPR and IAD can trigger self-aggregation of EcThsA^Macro
[9]
  Kd: 167 ± 91 nM

## c1c[nH]cn1 [imidazole]
EcThsB1, TIR domain [1]
  1H NMR base-exchange assay: only imidazole, histamine, and thiazole were observed to undergo base-exchange reactions with NAD^+ in the presence of EcThsB1^TIR

## NC(=O)c1ccc[n+]([C@@H]2O[C@H](COP(=O)([O-])OP(=O)(O)OC[C@H]3O[C@@H](n4cnc5c(N)ncnc54)[C@H](O)[C@@H]3O)[C@@H](O)[C@H]2O)c1 [NAD^+]
EcThsB1, TIR domain [10]
  real-time 1H NMR NADase assay: could use NAD^+ as a substrate to produce nicotinamide and ADP ribose (ADPR)
